Assay results: BindingDB's records for doi:10.1016/j.ejmech.2018.12.019 (Rheinische Friedrich-Wilhelms-University of Bonn, 2019)

What was measured:
[1] = molecular target: ATP-dependent translocase ABCB1 (Homo sapiens, UniProt P08183); assay: Inhibition of ABCB1 in human A2780/ADR cells assessed as potentiation of daunorubicin-induced cytotoxicity measured after 72 hrs by MTT assay
[2] = Inhibition of ABCG2 (unknown origin) expressed in MDCK2 cells co-expressing BCRP (unknown origin) assessed as potentiation of SN-38-induced cytotoxicity measured after 72 hrs by MTT assay
[3] = Inhibition of ABCB1 in human A2780/ADR cells assessed as potentiation of daunorubicin-induced cytotoxicity measured after 72 hrs by MTT assay
[4] = molecular target: T1, Broad substrate specificity ATP-binding cassette transporter ABCG2 (Homo sapiens, UniProt Q9UNQ0); assay: Inhibition of ABCG2 (unknown origin) expressed in MDCK2 cells co-expressing BCRP (unknown origin) assessed as potentiation of SN-38-induced cytotoxicity measured after 72 hrs by MTT assay
T1 sequence (Q9UNQ0 whole entry): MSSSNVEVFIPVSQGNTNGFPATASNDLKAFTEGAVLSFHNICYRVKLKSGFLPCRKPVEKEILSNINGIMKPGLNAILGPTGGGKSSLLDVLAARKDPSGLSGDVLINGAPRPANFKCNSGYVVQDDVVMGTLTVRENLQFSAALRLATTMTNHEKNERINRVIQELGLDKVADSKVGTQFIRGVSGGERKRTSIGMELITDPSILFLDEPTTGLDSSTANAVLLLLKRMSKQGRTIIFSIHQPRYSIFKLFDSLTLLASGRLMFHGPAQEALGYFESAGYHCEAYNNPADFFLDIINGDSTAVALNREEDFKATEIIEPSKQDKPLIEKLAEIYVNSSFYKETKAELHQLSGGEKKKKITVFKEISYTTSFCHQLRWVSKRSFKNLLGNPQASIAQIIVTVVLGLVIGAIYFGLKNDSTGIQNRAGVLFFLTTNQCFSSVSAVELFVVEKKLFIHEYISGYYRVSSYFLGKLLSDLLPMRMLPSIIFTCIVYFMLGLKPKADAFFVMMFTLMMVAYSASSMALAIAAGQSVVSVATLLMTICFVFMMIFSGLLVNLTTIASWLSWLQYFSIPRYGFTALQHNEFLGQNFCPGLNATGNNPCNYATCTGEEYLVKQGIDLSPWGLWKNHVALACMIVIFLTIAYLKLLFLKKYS

ATP-dependent translocase ABCB1, sequence (P08183 whole entry): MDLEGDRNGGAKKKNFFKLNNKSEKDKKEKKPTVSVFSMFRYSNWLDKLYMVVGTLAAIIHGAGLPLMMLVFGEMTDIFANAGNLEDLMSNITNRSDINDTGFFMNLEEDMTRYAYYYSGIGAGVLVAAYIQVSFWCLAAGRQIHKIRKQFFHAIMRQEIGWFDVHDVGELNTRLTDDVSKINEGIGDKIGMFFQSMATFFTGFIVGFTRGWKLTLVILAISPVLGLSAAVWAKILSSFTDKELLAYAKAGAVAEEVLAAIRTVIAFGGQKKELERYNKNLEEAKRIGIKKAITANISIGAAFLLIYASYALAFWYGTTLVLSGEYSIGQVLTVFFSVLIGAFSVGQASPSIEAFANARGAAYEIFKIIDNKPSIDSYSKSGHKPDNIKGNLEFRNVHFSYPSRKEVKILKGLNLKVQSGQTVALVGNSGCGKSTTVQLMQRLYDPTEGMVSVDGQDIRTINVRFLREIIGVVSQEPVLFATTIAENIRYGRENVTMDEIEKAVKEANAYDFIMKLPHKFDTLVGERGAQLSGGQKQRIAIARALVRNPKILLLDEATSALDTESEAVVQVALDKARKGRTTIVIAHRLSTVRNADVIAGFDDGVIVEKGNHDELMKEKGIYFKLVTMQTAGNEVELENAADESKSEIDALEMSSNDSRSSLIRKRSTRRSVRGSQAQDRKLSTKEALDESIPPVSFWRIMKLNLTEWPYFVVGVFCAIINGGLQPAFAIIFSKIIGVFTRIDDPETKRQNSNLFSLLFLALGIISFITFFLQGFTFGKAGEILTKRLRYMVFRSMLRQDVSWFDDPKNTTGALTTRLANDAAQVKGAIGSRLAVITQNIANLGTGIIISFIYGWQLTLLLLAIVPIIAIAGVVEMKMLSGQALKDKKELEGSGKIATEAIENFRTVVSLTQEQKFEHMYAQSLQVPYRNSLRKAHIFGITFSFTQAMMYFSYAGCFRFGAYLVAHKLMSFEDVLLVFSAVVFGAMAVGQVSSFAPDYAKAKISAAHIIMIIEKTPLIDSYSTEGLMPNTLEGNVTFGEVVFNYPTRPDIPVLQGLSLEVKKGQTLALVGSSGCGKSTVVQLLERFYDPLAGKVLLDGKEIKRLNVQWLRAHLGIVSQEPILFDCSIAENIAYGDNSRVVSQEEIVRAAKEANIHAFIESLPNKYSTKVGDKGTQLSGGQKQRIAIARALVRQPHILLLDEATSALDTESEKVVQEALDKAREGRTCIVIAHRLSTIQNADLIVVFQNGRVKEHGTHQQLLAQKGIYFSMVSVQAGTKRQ

Cc1cc(Nc2ncc(Cl)c(Nc3ccccc3S(=O)(=O)C(C)C)n2)c(OC(C)C)cc1C1CCNCC1
EC50 [1]: 89 nM

O=C(COc1cccc(C(=O)/C=C/c2ccccc2)c1)Nc1ccc2c(c1)COC2=O
EC50 [2]: 1170 nM

COc1ccc(-c2c(OCC(=O)Nc3cccc4ccccc34)oc3ccccc3c2=O)cc1OC
EC50 [2]: 446 nM | EC50 [3]: 3120 nM

Cc1ccc(-c2c(OCC(=O)Nc3cccc4ccccc34)oc3ccccc3c2=O)cc1
EC50 [3]: 5010 nM

CCCOc1ccc(/C=C/C(=O)c2ccc(O)cc2)cc1
EC50 [2]: 1250 nM

COc1cccc(/C=C/C(=O)c2ccc(OCC(=O)Nc3ccc(OC)c(OC)c3)cc2)c1
EC50 [2]: 1390 nM

O=C(COc1c(-c2ccccc2Cl)oc2ccccc2c1=O)Nc1ccc2c(c1)COC2=O
EC50 [2]: 1220 nM | EC50 [3]: 9900 nM

COc1cc(C(=O)/C=C/c2cc(OC)c(OC)c(OC)c2)ccc1O
EC50 [2]: 512 nM

COc1ccc(-c2c(OCC(=O)Nc3cccc4ccccc34)oc3ccccc3c2=O)cc1
EC50 [2]: 793 nM

COc1ccc(NC(=O)COc2ccc(C(=O)/C=C/c3cc(OC)c(OC)c(OC)c3)cc2)cc1OC
EC50 [2]: 107 nM

COc1cc(/C=C/C(=O)c2ccc(OCC(=O)NCc3ccc4c(c3)OCO4)cc2)cc(OC)c1OC
EC50 [2]: 989 nM

COc1ccc(NC(=O)COc2ccc(C(=O)/C=C/c3c(F)cccc3F)cc2)cc1OC
EC50 [2]: 448 nM

CN1CCN(c2cccc(Nc3nc4c(-c5ccc(S(C)(=O)=O)cc5)cccn4n3)c2)CC1
EC50 [1]: 202 nM

Cc1ccc(-n2nc(C(C)(C)C)cc2NC(=O)Nc2ccc(OCCN3CCOCC3)c3ccccc23)cc1 [1-[5-tert-butyl-2-(p-tolyl)pyrazol-3-yl]-3-[4-(2-morpholinoethoxy)-1-naphthyl]urea]
EC50 [1]: 524 nM

C[C@]1(O)C[C@@H](c2nc(-c3ccc4ccc(-c5ccccc5)nc4c3)c3c(N)nccn32)C1 [(1s,3s)-3-(8-amino-1-(2-phenylquinolin-7-yl)imidazo[1,5-a]pyrazin-3-yl)-1-methylcyclobutanol]
EC50 [4]: 104 nM | EC50 [3]: 2090 nM

COC(=O)c1ccc2c(c1)NC(=O)/C2=C(\Nc1ccc(N(C)C(=O)CN2CCN(C)CC2)cc1)c1ccccc1 [BIBF-1120]
EC50 [1]: 276 nM

CC(=O)Nc1cccc(-n2c(=O)n(C3CC3)c(=O)c3c(Nc4ccc(I)cc4F)n(C)c(=O)c(C)c32)c1 [CHEBI:75998]
EC50 [1]: 247 nM

COc1cc2ncnc(Nc3ccc(O)c(Br)c3)c2cc1OC [WHI-P154]
EC50 [4]: 189 nM | EC50 [3]: 3080 nM
